# Tests used:
# GluK1 = GluK1 (Homo sapiens, UniProt P39086); experiment: Ca2+ fluorescence assay, antagonism of L-glutamate; type: cell-based
# GluK3 = GluK3 (Homo sapiens, UniProt Q13003); experiment: whole-cell voltage clamp, % inhibition at […] of […] glutamate currents; type: cell-based; settings: read-out: % inhibition at 30 μM
# Sequence of GluK3 (Q13003 32-919): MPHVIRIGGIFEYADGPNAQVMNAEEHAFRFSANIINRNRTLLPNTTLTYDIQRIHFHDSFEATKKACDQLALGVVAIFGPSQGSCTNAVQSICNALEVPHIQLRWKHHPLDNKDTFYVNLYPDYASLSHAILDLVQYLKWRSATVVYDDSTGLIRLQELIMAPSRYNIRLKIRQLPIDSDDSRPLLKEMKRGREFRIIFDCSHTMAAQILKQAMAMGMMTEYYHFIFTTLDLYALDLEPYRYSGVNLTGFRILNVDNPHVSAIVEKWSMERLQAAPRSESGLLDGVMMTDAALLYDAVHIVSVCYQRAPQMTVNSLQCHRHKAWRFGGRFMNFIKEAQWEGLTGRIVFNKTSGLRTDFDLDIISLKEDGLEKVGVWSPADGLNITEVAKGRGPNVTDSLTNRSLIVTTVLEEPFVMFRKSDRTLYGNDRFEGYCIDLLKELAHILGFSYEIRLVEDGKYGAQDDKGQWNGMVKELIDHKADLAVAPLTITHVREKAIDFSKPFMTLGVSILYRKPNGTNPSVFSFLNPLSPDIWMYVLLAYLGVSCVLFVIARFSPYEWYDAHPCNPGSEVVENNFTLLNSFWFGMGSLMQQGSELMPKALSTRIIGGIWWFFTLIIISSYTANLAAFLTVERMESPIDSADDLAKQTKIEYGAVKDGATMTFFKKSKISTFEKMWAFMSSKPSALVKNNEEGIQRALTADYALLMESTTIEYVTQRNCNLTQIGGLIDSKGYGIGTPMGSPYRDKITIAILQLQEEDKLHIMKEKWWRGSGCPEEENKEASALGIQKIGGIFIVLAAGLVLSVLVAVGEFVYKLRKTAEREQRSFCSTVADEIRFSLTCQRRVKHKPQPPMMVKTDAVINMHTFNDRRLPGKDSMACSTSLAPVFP
# Sequence of GluK1 (P39086 31-918): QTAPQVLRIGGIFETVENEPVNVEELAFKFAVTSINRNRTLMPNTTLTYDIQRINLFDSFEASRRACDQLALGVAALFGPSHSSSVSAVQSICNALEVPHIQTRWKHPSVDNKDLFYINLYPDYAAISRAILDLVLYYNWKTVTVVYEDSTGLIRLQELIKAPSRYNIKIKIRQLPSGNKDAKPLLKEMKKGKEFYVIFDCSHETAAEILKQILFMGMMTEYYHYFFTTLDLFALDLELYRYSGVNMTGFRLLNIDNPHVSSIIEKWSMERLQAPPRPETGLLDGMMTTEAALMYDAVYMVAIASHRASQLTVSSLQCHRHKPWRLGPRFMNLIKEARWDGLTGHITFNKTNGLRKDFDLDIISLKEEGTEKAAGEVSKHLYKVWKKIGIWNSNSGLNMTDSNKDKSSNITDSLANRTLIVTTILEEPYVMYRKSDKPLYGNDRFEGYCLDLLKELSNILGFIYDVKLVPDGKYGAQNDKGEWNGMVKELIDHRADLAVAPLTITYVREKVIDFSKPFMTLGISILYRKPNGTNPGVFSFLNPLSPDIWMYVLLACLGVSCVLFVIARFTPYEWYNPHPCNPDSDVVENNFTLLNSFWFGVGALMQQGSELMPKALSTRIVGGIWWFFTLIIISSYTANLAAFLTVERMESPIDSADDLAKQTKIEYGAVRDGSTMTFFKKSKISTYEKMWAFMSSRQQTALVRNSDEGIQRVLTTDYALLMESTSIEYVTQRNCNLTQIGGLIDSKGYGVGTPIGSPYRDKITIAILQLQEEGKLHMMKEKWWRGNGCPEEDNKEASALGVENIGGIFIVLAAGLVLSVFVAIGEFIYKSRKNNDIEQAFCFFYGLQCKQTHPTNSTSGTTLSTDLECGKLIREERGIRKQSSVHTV
Compound,Kb (GluK1) [nM],inhibition at 30 µM (GluK3) [%]
UBP304,110 ± 30,–
"Cc1cn(C[C@H](N)C(=O)O)c(=O)n(Cc2cc(-c3ccccc3)sc2C(=O)O)c1=O [ACET, (S)-1-(2-amino-2-carboxyethyl)-3-(2-carboxy-5-phenylthiophene-3-yl-methyl)-5-methylpyrimidine-2,4-dione]",1.4 ± 0.2,30 ± 5

# — paper PMC2637447 (Neuropharmacology, 2008)
